The target in assay [1] is c-Myc protein (Homo sapiens (Human), UniProt P01106). The assay can be described thus: Degradation of c-Myc protein.
The subject of assay [2] is HL60 cells. The experiment in a line: Anti-cancer activity test, MTT, HL60 cells. The settings on record: Homo sapiens, HL-60, culturing for 72 hours. It counts as cell-based. Put shortly: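 Log-phase cells seeded at 2×10^4 per well in RPMI-1640 with 10% FBS, treated 72 h at 37 °C with compound (0.2% final DMSO), triplicates. Viability by MTT (3 h), DMSO-solubilized formazan read at 570 nm; IC50 calculated.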

Assay [3] deals with c-Myc peptide LE40 (Homo sapiens, UniProt P01106). The assay can be described thus: Single-cycle binding kinetics with c-Myc peptide LE40.
Assay [4] has as its target c-Myc peptide LE40 (S373A) (Homo sapiens, UniProt P01106, S373A). The assay can be described thus: Single-cycle binding kinetics with c-Myc peptide LE40 (S373A).
In assay [5] the target is c-Myc370-412-biotin peptide (Homo sapiens (Human), UniProt P01106). The experiment in a line: SPR binding affinity on c-Myc protein. The conditions noted are these: c-Myc370-412-biotin peptide immobilized, 1.00×PBS-P buffer (5% DMSO). How it is done:
1. Experiment Preparation
10×PBS-P was diluted into 1.05×PBS-P buffer solution for later use. The c-Myc370-412-biotin peptide was dissolved in chromatographic pure DMSO to prepare a 1 mM stock solution. The molecules were dissolved in chromatographic pure DMSO to prepare a 10 mM stock solution. Part of 1.05×PBS-P buffer was added to chromatographic pure DMSO to prepare 1.00×PBS-P buffer (5% DMSO, ready for use).
The highest solubility of each small molecule in the 1.00×PBS-P buffer (5% DMSO) system was tested respectively. This solubility was used as the highest concentration tested for small molecule activity.
2. Protein Immobilization
The c-Myc370-412-biotin peptide stock solution was added to 1.05×PBS-P buffer to prepare a 50 μM solution, and then diluted with 1.00×PBS-P buffer (5% DMSO) to […] for protein immobilization.
After washing the sample channel and reference channel of the chip with 1.00×PBS-P buffer (5% DMSO), an automatic mode was used to immobilize the protein in the sample channel. The target amount of the immobilized protein was 500RU. The immobilization was successful. The buffer was used continuously to flush until equilibrium.
3. Small Molecule Activity Test.
Buffer was used to prepare different concentrations of small molecule compounds for sample testing. The system was 1.00×PBS-P buffer (5% DMSO). The difference was detected between the response of small molecules flowing through the sample channel and the reference channel.
The experimental conditions were a flow rate of 30 μL/min, binding time of 120 seconds, and dissociation time of 240 seconds. After each binding and dissociation test, 50% DMSO was used to flush the tubing, and 10 mM glycine-HCl buffer (pH 2.1) was used to flush the surface of the chip to wash away the remaining compound molecules.

The target of assay [6] is c-Myc and Max (Homo sapiens (Human), UniProt P01106). The assay can be described thus: Competition for the binding of c-Myc and Max.
Assay [7] relates to tumor cells with high expression of c-Myc. The assay can be described thus: Inhibition of tumor cells with high expression of c-Myc. It counts as cell-based.
Assay [8] concerns human chronic myeloid leukemia cells (K562). The experiment in a line: Anti-cancer activity test, MTT, K562 cells. Format: cell-based. The conditions noted are these: culturing for 72 hours. How it is done:
(§1) Cell culture medium: Roswell medium RPMI-1640 (+L-glutamine) was added with 10% fetal bovine serum, with 100 units penicillin and 100 μg streptomycin per ml.
(§2) Cell culture conditions: 5% CO2, 95% humidity, cultured at 37° C. constant temperature.
(§3) 2. Cell Inoculation, Drugs Dosing and Culture.
(§4) Logarithmic growth phase HL-60, human chronic myeloid leukemia cells (K562), human esophageal squamous cell carcinoma cells (KYSE510), human large cell lung cancer cells (H460) were inoculated into 96-well cell culture plates, 2×10^4 cells per well. Different concentrations of active compounds (dissolved in dimethyl sulfoxide (DMSO) stock solution) were added, so that the final concentration of DMSO was 0.2%, and the control group was DMSO. Each group was repeated three times.
(§5) After culturing for 72 hours, 20 µL of thiazolyl blue (MTT) (5 mg/ml, ready for use, dissolved in 1×PBS for cell culture) was added to each well, and incubated at 37° C. for 3 hours.
(§6) The 96-well cell culture plates were centrifuged at 1000 rpm for 10 minutes. The supernatant was discarded; 200 μL of DMSO was added to each well and the plate was shaken for 5 minutes.
(§7) The absorbance of each well was detected at 570 nm wavelength with a microplate reader, and the IC50 of the compounds was calculated.

In assay [9] the test system is human large cell lung cancer cells (H460). The assay can be described thus: Anti-cancer activity test, MTT, H460 cells. It counts as cell-based. The conditions noted are these: NCI-H460, culturing for 72 hours. The protocol: as §1, §2, §3, §4, §5, §6, §7
The subject of assay [10] is human esophageal squamous cell carcinoma cells (KYSE510). The experiment in a line: Anti-cancer activity test, MTT, KYSE510 cells. It counts as cell-based. The settings on record: KYSE-510, culturing for 72 hours. The protocol: as §1, §2, §3, §4, §5, §6, §7

Each structure is given as a SMILES string. A value given as a limit tells only on which side of the number the result lay.

Sequence of c-Myc protein (P01106 whole entry): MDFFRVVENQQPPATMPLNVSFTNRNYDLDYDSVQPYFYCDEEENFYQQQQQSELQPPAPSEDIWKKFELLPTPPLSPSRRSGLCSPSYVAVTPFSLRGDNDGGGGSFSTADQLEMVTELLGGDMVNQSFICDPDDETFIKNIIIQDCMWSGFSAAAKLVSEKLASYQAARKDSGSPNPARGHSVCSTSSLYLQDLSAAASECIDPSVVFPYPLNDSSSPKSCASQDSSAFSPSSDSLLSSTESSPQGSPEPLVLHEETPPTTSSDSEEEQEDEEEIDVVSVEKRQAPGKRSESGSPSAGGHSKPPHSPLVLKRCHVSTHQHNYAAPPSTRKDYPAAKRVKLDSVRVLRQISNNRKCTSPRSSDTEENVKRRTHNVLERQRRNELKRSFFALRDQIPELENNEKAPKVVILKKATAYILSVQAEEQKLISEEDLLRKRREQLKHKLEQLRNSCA
Sequence of c-Myc and Max (P01106 whole entry): as above
Sequence of c-Myc370-412-biotin peptide (P01106 385-427): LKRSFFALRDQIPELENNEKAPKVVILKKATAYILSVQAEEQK

Regarding `CSCC[C@H](NC(=O)OCC1c2ccccc2-c2ccccc21)C(=O)N[C@@H](CC(C)C)B1O[C@@H]2C[C@@H]3C[C@@H](C3(C)C)[C@]2(C)O1` [Compound A5], the “degradation of c-Myc protein” value in assay [1] is “promote the degradation of c-Myc protein”. Besides, the IC50 (as a rule, the concentration that inhibits the measured activity by half) in [2] is less than 0.1 µM. For the same compound, the Kd (commonly the free concentration of one partner at which half of the binding sites on the other are occupied at equilibrium, for simple one-to-one binding) is 0.16 µM in assay [3] and 0.1 to 0.5 µM in [5]. Moreover, in assay [4], the “binding (single-cycle binding kinetic curve)” value is recorded as “no obvious binding”.

On to `CC(C)C[C@H](NC(=O)[C@H](CCCCNC(=O)OC(C)(C)C)NC(=O)OCC1c2ccccc2-c2ccccc21)B1O[C@@H]2C[C@@H]3C[C@@H](C3(C)C)[C@]2(C)O1` [Compound A13], for which the “competition for the binding of c-Myc and Max” value in assay [6] is “can compete for the binding of c-Myc and Max”. Also, in [1], the “degradation of c-Myc protein” value is on record as “promote the degradation of c-Myc protein”. In addition, the IC50 in assay [2] is less than 0.1 µM. For the same compound, the “selective inhibition of tumor cells with high expression of c-Myc” value in assay [7] was “selectively inhibits tumor cells with high expression of c-Myc”.

Consider `CC(C)C[C@H](NC(=O)[C@H](Cc1c[nH]c2ccccc12)NC(=O)CC1CCCC1)B(O)O` [Compound A69], for which the IC50 in [8], in [2], in assay [9] and in [10] was less than 0.1 µM throughout.

(Values after US12570673B2, “c-Myc protein inhibitor, and preparation method therefor and use thereof” (SUZHOU KINTOR PHARMACEUTICALS, INC., priority 2019, dated 2026).)
